In patent US7989466B2, “Methods to inhibit or augment an inflammatory response” (Cambridge Enterprise Limited, priority 1999, dated 2011):
In brackets after ≈: the same amount, converted by molar mass. Positions of bridges follow the written chain, without caps; N, C: chain ends. Non-standard residues stand in square brackets, D forms with d. Residues, ends and D or L forms follow the SMILES beside them. No end group written: not given here.

Key:
[1] = test system: antigen specific antibody recall response; test: Cynomolgus monkeys immunized with scFv antigen; format: in vivo; settings: single dose 50 mg/kg i.v.
Experimental: Cynomolgus monkeys were immunized with antigen that is a single chain Fv (scFv) protein. Each animal previously received 3 i.v. injections of the antigen and all developed high serum titers. Five animals were randomly divided into 2 groups. Two animals served as PBS treated controls and 3 were treated i.v. with 50 mg/kg CRD-Leu4Ile11Cys13 peptide 3(3-12)[MCP-1]. Thirty minutes following CRD-Leu4Ile11Cys13 peptide 3(3-12)[MCP-1] treatment all animals were challenged i.v. with 3.5 mg/kg antigen. In addition, animals were challenged intradermal with each of the following in a volume of 50 μl:PBS; 50 μg antigen; 5 μg antigen; 0.5 μg antigen; 500 ng MCP-1; or 50 ng LPS. Serum was collected at 10 minutes, 30 minutes, 60 minutes, 4 hours, and 24 hours. Animals were sacrificed 24 hours after CRD-Leu4Ile11Cys13 peptide 3(3-12)[MCP-1] injection and complete necropsy performed and tissues fixed for histopathology. Fixed and frozen skin samples were harvested for histopathology and immunohistochemistry. […] Blood was also analyzed pre- and post-CRD-Leu4Ile11Cys13 peptide 3(3-12)[MCP-1] injection for hematology parameters and serum chemistry. Serum levels were evaluated by an LC-MS method (limit of quantitation=1 μg/ml) pre-treatment and then at 10 minutes, 30 minutes, 60 minutes, 4 hours and 20-24 hours after injection. […]

[2] = test system: LPS- and MCP-1-induced dermal inflammation; test: Rat dermal inflammation model (MCP-1 / LPS intradermal); format: in vivo
Experimental: To assess the efficacy of an agent of the invention in the prevention of lipopolysaccharide (LPS)- and MCP-1-induced dermal inflammation in the rat, three different doses of CRD-Leu4Ile11Cys13peptide 3(3-12)[MCP-1] were administered. An inflammatory response was elicited by intradermal injection (ventral abdomen) of either 500 ng MCP-1 or 100 ng MCP-1 along with endotoxin-free phosphate-buffered saline vehicle (as a negative control) and bacterial lipopolysaccharide (LPS; as a positive control). Each substance was injected at a different site. The results obtained from animals were compared to CRD-Leu4Ile11Cys13 peptide 3(3-12)[MCP-1] treated, and PBS (diluent control) treated, animals. […] The intradermal sites of agonist injection were collected, bisected and the extent of the inflammatory response was assessed by histopathology and quantitative immunofluorescence (fixed and frozen) (for example, following MCP-1 injection, the number of monocyte/macrophages in the skin was determined using the anti-CD14 (MCA342 from Serotec; clone ED2) at 3 μg/ml overnight at 4° C. The second antibody was rat anti-mouse FITC (415-096-100 from Jackson ImmunoResearch) at 28 μg/ml for 6 hours at room temperature). […]

CCR-2 = CCR-2 (Homo sapiens, UniProt P41597); test: Competitive binding to CCR-2 on CHO cells; settings: read-out: ED50, Binding to CCR-2
Experimental: A competitive binding assay was used to determine the binding of A-I to chemokine receptors. These experiments were performed under ‘Horuk’ conditions (Hesselgesser et al., J. Biol. Chem., 273, 15687 (1998)), except that CHO cells expressing CCR-2 or CXCR-2 (AIDS Reagent Program, MRC London) were used. In each case, the specific binding of 0.25 nM labeled ligand to the cells was determined as the counts bound which were competable by 100 nM cold ligand. In each experiment, A-I was added from a stock solution in DMSO (with <0.1% DMSO final concentration in the assay).

5-HT1a receptors = target: T1, 5-HT1a receptors (Homo sapiens, UniProt P08908); test: 5HT1a serotonin receptor membrane binding (3H-8-OH-DPAT)
T1 construct: purchased RBI/Sigma S-160
Experimental: For 5HT1a serotonin receptors, membranes (S-160, RBI/Sigma) are diluted into binding buffer (50 mM Tris pH 7.4 10 mM MgCl2 and 0.5 mM EDTA, with ascorbate at 1 mg/ml added immediately before use), e.g., 10 μl of membranes in 500 μl assay volume (i.e., 1:50 dilution). Cold competitor or test competitor is then added, e.g., 5 μl of 100× stock solution such as 5 μl of 1 mM oxymetazoline. […] The tubes are vortexed then spun briefly. The mixtures are incubated for 1 hour at 4° C. The mixtures are filtered through GF/C filters pre-soaked in polyethyleneimine (0.3% in MilliQ water). The tubes are washed with 2-3 ml of wash buffer and filtered. The filter is washed with 3×5 ml of wash buffer, and air dried. 4.5 ml of scintillant is added to the dried filter in a scintillation vial and the filter counted on a tritium channel.

gp120 = settings: ns = not significantly different from control; >100 = ED50 not determined

T1 sequence (P08908 whole entry): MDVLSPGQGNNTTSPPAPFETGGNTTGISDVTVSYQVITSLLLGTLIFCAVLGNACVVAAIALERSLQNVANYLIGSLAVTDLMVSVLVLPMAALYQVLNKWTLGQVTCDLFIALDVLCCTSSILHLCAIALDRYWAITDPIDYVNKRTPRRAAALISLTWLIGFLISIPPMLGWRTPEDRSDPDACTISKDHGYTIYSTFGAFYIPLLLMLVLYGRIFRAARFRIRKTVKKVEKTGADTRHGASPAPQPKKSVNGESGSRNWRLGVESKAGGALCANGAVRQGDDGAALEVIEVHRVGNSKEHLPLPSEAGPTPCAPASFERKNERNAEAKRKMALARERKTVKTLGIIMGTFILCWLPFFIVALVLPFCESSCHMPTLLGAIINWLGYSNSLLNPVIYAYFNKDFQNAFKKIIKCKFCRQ
CCR-2, sequence (P41597 1-313 limits assumed): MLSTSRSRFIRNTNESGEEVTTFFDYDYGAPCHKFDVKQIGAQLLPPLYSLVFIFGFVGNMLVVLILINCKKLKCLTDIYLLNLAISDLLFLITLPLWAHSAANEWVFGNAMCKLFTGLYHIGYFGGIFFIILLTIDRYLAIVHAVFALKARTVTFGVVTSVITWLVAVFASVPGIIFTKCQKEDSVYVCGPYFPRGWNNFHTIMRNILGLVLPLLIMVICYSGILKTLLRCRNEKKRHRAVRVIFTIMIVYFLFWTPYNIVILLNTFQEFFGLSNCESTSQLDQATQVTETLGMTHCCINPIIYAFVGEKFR

For `CC[C@@H](C)[C@H]1NC(=O)[C@@H](CCC(N)=O)NC(=O)[C@H](N)CSSC[C@H](C(N)=O)NC(=O)[C@@H](CC(C)C)NC(=O)[C@@H](CC(=O)O)NC(=O)[C@H]2CCCN2C(=O)[C@@H](CCCCN)NC(=O)[C@@H](CCC(N)=O)NC(=O)[C@@H](CCCCN)NC(=O)[C@@H](Cc2c[nH]c3ccccc23)NC1=O` (H-[dC][dQ][dI][dW][dK][dQ][dK][dP][dD][dL][dC]-NH2; disulfide 1-11; N-terminus assumed), which “antigen specific antibody response in splenocyte, lymph node and PBL recall responses” value [1] is on record?
The value was “reduced antigen specific antibody response”.

And the “recruitment of B-cells to the site of the LPS injection” value ([2]; rat skin)?
Its value is “substantially inhibited”.

And the “MCP-1 induced recruitment of monocyte/macrophages in rat skin” value ([2]; systemic treatment 30 minutes before intradermal MCP-1)?
Its value is “completely abolished”.

Which EC50 (CCR-2) does the source give for `C=CCCCCCCCCC(=O)N[C@H]1CCC(=O)NC1=O` [A-I (NR58.4), [3S]-3-(undec-10-enoylamino)piperidine-2,6-dione] here?
Its EC50 is 0.005 µM.

And the pKa (physchem)?
The pKa was roughly 11.

And the solubility (physchem; organic solvent or mixture)?
The solubility was greater than 200000 µg/mL.

And the solubility (physchem; pH 11, water)?
Its solubility is 5000 µg/mL (≈ 17 mM).

And the “selectivity for MCP-1 inhibition over serotonin receptor binding” value (5-HT1a receptors)?
The value was “approximately 40,000 fold”.

And the EC50 (5-HT1a receptors; 100 μM highest concentration tested)?
Its EC50 is 80 µM.

Which “gp120 ED-50” value (gp120) does the source give for “SYRRITSSKCPKEAV [peptide 2(1-15)[MCP-1]]” here?
The value was 0.4 µM.
